Source: article PMC11802874, “The hypolipidemic effect of MI-883, the combined CAR agonist/ PXR antagonist, in diet-induced hypercholesterolemia model” (Nature Communications, 2025)
Marks after values point to notes of the source that are not given here.

Assay: Pharmacokinetic study after single dose in C57BL/6N mice
Format: in vivo, mouse
Description: Pharmacokinetic study of MI-883 in C57BL/6N mice (9–10 weeks old, body weight 20.8 to 24.5 g and average body weight across all groups 22.7 g, SD = 1.1 g) were performed following peroral (p.o.) and intraperitoneal (i.p.) administrations. […] There was also a control group of 4 animals per route. The levels of the parent compound MI-883 were determined by LC-MS/MS in the blood plasma, brain, kidney, liver, muscle (Leg triceps), bile, small intestine, colon, and adipose tissues over time after a single dose of 10 mg/kg. Mice were injected i.p. with 2,2,2-tribromoethanol at a dose of 150 mg/kg prior to drawing the blood. Blood collection was performed from the orbital sinus in BD microtainers tubes containing K2EDTA. Animals were sacrificed by cervical dislocation after the blood samples collection. After this, samples of brain, kidney, liver, muscle (Leg triceps), small intestine, colon, and adipose tissue were collected. Bile samples were taken from the gallbladder of mice. Urine and feces samples were collected using metabolic cages over the course of 1440 min (24 h) after compound administration. All samples were immediately processed, flash-frozen, and stored at –70 °C until subsequent analysis. Detection of the presence of potential metabolites (2-chloro-5-((4-(2-(4-chlorophenyl)-7-fluoroimidazo[1,2-a]pyridin-3-yl)-1H-1,2,3-triazol-1-yl)methyl)-N-methylbenzamide or 2-(4-chlorophenyl)-7-fluoro-3-(1H-1,2,3-triazol-4-yl)imidazo[1,2-a]pyridine) in plasma and tissues was performed. MI-883 was applied in 5%DMSO – 5%PEG300 – 90%corn oil formulation with a final concentration of the compound, 2 mg/ml. Animal treatment and sample preparation were conducted by the Animal Laboratory personnel at Enamine/Bienta.
Plasma samples (50 μl) were mixed with 200 μl of IS400 solution. After mixing by pipetting and centrifuging for 4 min at 6000 rpm, 2 μl of each supernatant was injected into the LC-MS/MS system. Solution of compound IS-19851 (400 ng/ml in acetonitrile-methanol mixture 1:1, v/v) was used as internal standard (IS400) for quantification of MI-883 in blood plasma, liver, kidney, muscle (Leg triceps), small intestine, and colon samples. Liver, kidney, muscle (Leg triceps), colon, and small intestine samples (weight 100 mg ±1 mg) were disintegrated in 500 μl of IS400 using zirconium oxide beads (120 mg ± 5 mg) in The Bullet Blender® homogenizer for 1–3 min at speed 8–12. After this, the samples were centrifuged for 3 min at 14,000 rpm, and 1 μl of each supernatant was injected into the LC-MS/MS system.
Brain and adipose tissue samples (weight 100 mg ± 1 mg) were dispersed in 500 μl of IS400(80) using zirconium oxide beads (120 mg ± 5 mg) in The Bullet Blender® homogenizer for 30 s at speed 8. After this, the samples were centrifuged for 4 min at 14,000 rpm, and 1 μl of each supernatant was injected into the LC-MS/MS system. Solution of compound IS-19851 (400 ng/ml in water-acetonitrile-methanol mixture, 2:4:4, v/v/v) was used as internal standard (IS400(80)) for quantification of MI-883 in the brain, adipose tissue, urine, and bile samples. Urine (cumulative) and bile samples were mixed with IS400(80) solution (1:20, v/v). After mixing by pipetting and centrifuging for 4 min at 6000 rpm, 0.5 μl of each supernatant was injected into the LC-MS/MS system. Cumulative feces samples (114 mg–249 mg) were transferred to BMT-20-S tubes with 4 stainless steel balls, mixed with 20 volumes of IS400(80) solution, and dispersed using ULTRA-TURRAX Tube Drive for 1 min at 3000 rpm within the 30 min thrice. After dispersing and centrifuging for 2 min at 14,000 rpm, 0.5 μl of each supernatant was injected into the LC-MS/MS system.
The concentration of MI-883 in plasma and tissues was determined using a high-performance liquid chromatography/tandem mass spectrometry (HPLC-MS/MS) method. […]

[1] = male, C57BL/6N, mouse, ip, Liver, 10 mg/kg

SMILES: NC(=O)c1cc(Cn2cc(-c3c(-c4ccc(Cl)cc4)nc4cc(F)ccn34)nn2)ccc1Cl [MI-883, 2-chloro-5-((4-(2-(4-chlorophenyl)-7-fluoroimidazo[1,2-a]pyridin-3-yl)-1H-1,2,3-triazol-1-yl)methyl)benzamide]
- expected metabolites (N-methyl, N-dimethyl benzamide, triazolyl-imidazopyridine) in plasma and tissues (10 mg/kg p.o. and i.p.): No expected metabolites
- route of excretion (10 mg/kg, C57BL/6N mice): excreted mainly via bile
- tissue distribution (10 mg/kg, C57BL/6N mice): significantly distributed into the liver, but not the brain
- Peroral bioavailability (%, p.o. vs. i.p.) (estimation based on comparison of AUCs after p.o. and i.p. application, 10 mg/kg): 98.6* %
- PK of MI-883: MI-883 i.p. adipose tis. (i.p., time 10): 2064
- PK of MI-883: MI-883 i.p. adipose tis. (i.p., time 120): 2083
- PK of MI-883: MI-883 i.p. adipose tis. (i.p., time 240): 2267
- PK of MI-883: MI-883 i.p. adipose tis. (i.p., time 480): 1643
- PK of MI-883: MI-883 i.p. adipose tis. (i.p., time 720): 651
- PK of MI-883: MI-883 i.p. bile (i.p., time 10): 347
- PK of MI-883: MI-883 i.p. bile (i.p., time 120): 5663
- PK of MI-883: MI-883 i.p. bile (i.p., time 240): 6712
- PK of MI-883: MI-883 i.p. bile (i.p., time 480): 17332
- PK of MI-883: MI-883 i.p. bile (i.p., time 720): 20058
- PK of MI-883: MI-883 i.p. brain (i.p., time 10): 20
- PK of MI-883: MI-883 i.p. brain (i.p., time 120): 88
- PK of MI-883: MI-883 i.p. brain (i.p., time 240): 86
- PK of MI-883: MI-883 i.p. brain (i.p., time 480): 62
- PK of MI-883: MI-883 i.p. brain (i.p., time 720): 33
- PK of MI-883: MI-883 i.p. colon (i.p., time 10): 7473
- PK of MI-883: MI-883 i.p. colon (i.p., time 120): 3182
- PK of MI-883: MI-883 i.p. colon (i.p., time 240): 3492
- PK of MI-883: MI-883 i.p. colon (i.p., time 480): 1531
- PK of MI-883: MI-883 i.p. colon (i.p., time 720): 1717
- PK of MI-883: MI-883 i.p. feces (i.p., feces, time 1440): 689 ng
- PK of MI-883: MI-883 i.p. kidney (i.p., time 10): 1650
- PK of MI-883: MI-883 i.p. kidney (i.p., time 120): 4299
- PK of MI-883: MI-883 i.p. kidney (i.p., time 240): 6585
- PK of MI-883: MI-883 i.p. kidney (i.p., time 480): 3365
- PK of MI-883: MI-883 i.p. kidney (i.p., time 720): 1611
- PK of MI-883: MI-883 i.p. kidney (i.p., time 1440): 11
- PK of MI-883: MI-883 i.p. liver (i.p., time 10): 9584
- PK of MI-883: MI-883 i.p. liver (i.p., time 120): 14064
- PK of MI-883: MI-883 i.p. liver (i.p., time 240): 10374
- PK of MI-883: MI-883 i.p. liver (i.p., time 480): 6478
- PK of MI-883: MI-883 i.p. liver (i.p., time 720): 4261
- PK of MI-883: MI-883 i.p. liver (i.p., time 1440): 24
- PK of MI-883: MI-883 i.p. muscule (i.p., time 10): 114
- PK of MI-883: MI-883 i.p. muscule (i.p., time 120): 913
- PK of MI-883: MI-883 i.p. muscule (i.p., time 240): 720
- PK of MI-883: MI-883 i.p. muscule (i.p., time 480): 687
- PK of MI-883: MI-883 i.p. muscule (i.p., time 720): 320
- PK of MI-883: MI-883 i.p. small intestine (i.p., time 10): 10141
- PK of MI-883: MI-883 i.p. small intestine (i.p., time 120): 7374
- PK of MI-883: MI-883 i.p. small intestine (i.p., time 240): 4886
- PK of MI-883: MI-883 i.p. small intestine (i.p., time 480): 1858
- PK of MI-883: MI-883 i.p. small intestine (i.p., time 720): 873
- PK of MI-883: MI-883 i.p (i.p., time 10): 565
- PK of MI-883: MI-883 i.p (i.p., time 120): 5532
- PK of MI-883: MI-883 i.p (i.p., time 240): 3130
- PK of MI-883: MI-883 i.p (i.p., time 480): 2314
- PK of MI-883: MI-883 i.p (i.p., time 720): 1008
- PK of MI-883: MI-883 i.p (i.p., time 1440): 1
- Cmax [1]: 14100 ng/mL
- Tmax [1]: 0.5 h
- half-life [1]: 2.53 h
- Cmax (male, C57BL/6N, mouse, ip, Plasma, 10 mg/kg): 5530 ng/mL
- Vd (male, C57BL/6N, mouse, plasma, 10 mg/kg, calculated from data after a single dose application, read-out: volume of distribution (Vd) in mice): 0.06 L
- Cmax (male, C57BL/6N, mouse, po, Liver, 10 mg/kg): 14900 ng/mL
